In the supplement of paper PMC10307832:

Each cell line was assayed with COCC[n+]1c2c(n(Cc3cnccn3)c1C)C(=O)c1ccccc1C2=O [YM155] + NC(=O)Nc1cc(-c2cccc(F)c2)sc1C(=O)N[C@H]1CCCNC1 [AZD7762] (partner 0.2 µM) (assay: relative viability (nuclei count vs DMSO), 5 days (fraction); higher = more cells survive). Settings: first compound 0.002 µM.
In short: (§1)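 Lung cancer cell lines in 1536-well plates got either a single drug or a fixed anchor-drug dose together with five library-drug doses (not always all listed) in √10 steps, by pin tool, on the day after seeding. Nuclei were counted after 5 days, and relative viability is the treated-to-vehicle ratio of nuclei counts. Values are medians of duplicate plates.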

| Cell Line | relative viability |
| --- | --- |
| HOP-62 | 0.484 |
| PC-14 | 0.233 |
| NCI-H1993 | 0.687 |
| NCI-H2405 | 0.609 |
| NCI-H3122 | 1.02 |
| A-427 | 0.741 |
| LOU-NH91 | 0.766 |
| NCI-H596 | 0.989 |
| NCI-H1666 | 0.821 |
| NCI-H838 | 0.936 |
| NCI-H322M | 0.53 |
| NCI-H1793 | 0.329 |
| NCI-H441 | 0.947 |
| NCI-H727 | 0.768 |

Same assay, conditions: first compound 0.006325 µM

| Cell Line | relative viability |
| --- | --- |
| NCI-H1395 | 0.41 |
| HCC-366 | 0.28 |
| NCI-H1915 | 0.659 |
| NCI-H2347 | 0.748 |
| LCLC-103H | 0.821 |
| ABC-1 | 0.84 |
| NCI-H1734 | 0.582 |
| HCC-78 | 0.779 |
| HCC-15 | 1.28 |
| HARA | 0.542 |
| NCI-H1975 | 0.734 |
| NCI-H1944 | 0.414 |
| NCI-H2126 | 1.04 |
| EMC-BAC-2 | 1.15 |
| NCI-H2170 | 0.817 |
| NCI-H358 | 0.523 |

| Cell Line | relative viability |
| --- | --- |
| LK-2 | 0.305 |
| HOP-62 | 0.427 |
| PC-14 | 0.343 |
| NCI-H1993 | 0.775 |
| NCI-H2405 | 0.656 |
| NCI-H3122 | 1.03 |
| A-427 | 0.793 |
| LOU-NH91 | 0.756 |
| NCI-H596 | 0.98 |
| NCI-H1666 | 0.824 |
| NCI-H23 | 0.292 |
| NCI-H838 | 0.904 |
| NCI-H322M | 0.579 |
| NCI-H1793 | 0.619 |
| NCI-H441 | 1.23 |
| NCI-H727 | 0.676 |

Same assay, conditions: first compound 0.02 µM

| Cell Line | relative viability |
| --- | --- |
| NCI-H1395 | 0.4 |
| HCC-366 | 0.327 |
| NCI-H1915 | 0.662 |
| NCI-H2347 | 0.807 |
| LCLC-103H | 0.832 |
| ABC-1 | 0.47 |
| NCI-H1734 | 0.614 |
| HCC-78 | 0.755 |
| HCC-15 | 1.19 |
| HARA | 0.521 |
| NCI-H1975 | 0.701 |
| NCI-H1944 | 0.531 |
| NCI-H2126 | 1.08 |
| EMC-BAC-2 | 1.07 |
| NCI-H2170 | 0.839 |
| NCI-H358 | 0.437 |

| Cell Line | relative viability |
| --- | --- |
| LK-2 | 0.494 |
| HOP-62 | 0.902 |
| PC-14 | 0.371 |
| NCI-H1993 | 0.475 |
| NCI-H2405 | 0.578 |
| NCI-H3122 | 0.974 |
| A-427 | 0.752 |
| LOU-NH91 | 0.769 |
| NCI-H596 | 1.28 |
| NCI-H1666 | 0.907 |
| NCI-H23 | 0.308 |
| NCI-H838 | 0.932 |
| NCI-H322M | 0.593 |
| NCI-H1793 | 0.532 |
| NCI-H441 | 1.09 |
| NCI-H727 | 0.684 |

Same assay, conditions: first compound 0.06325 µM

| Cell Line | relative viability |
| --- | --- |
| NCI-H1395 | 0.434 |
| HCC-366 | 0.273 |
| NCI-H1915 | 0.553 |
| NCI-H2347 | 0.732 |
| LCLC-103H | 0.781 |
| ABC-1 | 0.195 |
| NCI-H1734 | 0.539 |
| HCC-78 | 0.629 |
| HCC-15 | 1.17 |
| HARA | 0.499 |
| NCI-H1975 | 0.439 |
| NCI-H1944 | 0.58 |
| NCI-H2126 | 1.05 |
| EMC-BAC-2 | 0.785 |
| NCI-H2170 | 0.734 |
| NCI-H358 | 0.281 |

| Cell Line | relative viability |
| --- | --- |
| LK-2 | 0.438 |
| HOP-62 | 0.43 |
| PC-14 | 0.363 |
| NCI-H1993 | 0.537 |
| NCI-H2405 | 0.39 |
| NCI-H3122 | 0.971 |
| A-427 | 0.312 |
| LOU-NH91 | 0.8 |
| NCI-H596 | 1.11 |
| NCI-H1666 | 0.847 |
| NCI-H23 | 0.239 |
| NCI-H838 | 0.726 |
| NCI-H322M | 0.572 |
| NCI-H1793 | 0.46 |
| NCI-H441 | 0.246 |
| NCI-H727 | 0.703 |

Each cell line was assayed with CC(C)(C)c1cc(NC(=O)Nc2ccc(-c3cn4c(n3)sc3cc(OCCN5CCOCC5)ccc34)cc2)no1 [Quizartinib] + O=C(c1cc(Cc2n[nH]c(=O)c3ccccc23)ccc1F)N1CCN(C(=O)C2CC2)CC1 [Olaparib] (partner 8 µM) in the same assay as above. Settings: first compound 0.001 µM.
In short: as §1

| Cell Line | relative viability |
| --- | --- |
| NCI-H1395 | 0.476 |
| HCC-366 | 0.324 |
| NCI-H1915 | 0.257 |
| NCI-H2347 | 0.458 |
| LCLC-103H | 0.691 |
| NCI-H1734 | 0.587 |
| HCC-78 | 0.732 |
| HCC-15 | 0.684 |
| HARA | 0.854 |
| NCI-H1975 | 0.813 |
| NCI-H1944 | 0.442 |
| NCI-H2126 | 0.914 |
| EMC-BAC-2 | 0.468 |
| NCI-H2170 | 0.567 |
| NCI-H358 | 0.548 |
| LK-2 | 0.536 |
| PC-14 | 0.263 |
| NCI-H1993 | 0.968 |
| NCI-H2405 | 0.851 |
| NCI-H3122 | 0.573 |
| A-427 | 0.736 |
| LOU-NH91 | 0.87 |
| NCI-H596 | 0.728 |
